Results reported in US5530126A, “Process for the preparation of substituted 6-(pyrazol-3yl)-1,4-benzoxazin-3-ones” (Monsanto Company, priority 1994, dated 1996).

Columns and labels:
Assay type in all cases: in vivo
Annual bluegrass [1] = assay: Pre-emergence herbicide test; conditions: read-out: % plant inhibition (Anbg); for inhibition at 11210 g/ha: 11.21 kg/ha; for inhibition at 1120 g/ha: 1.12 kg/ha
Procedure, shortened: (§1)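 In this greenhouse test, seeds on compacted topsoil receive the active ingredient in an organic solvent or aqueous carrier, are covered with untreated soil and watered from below; percent inhibition is scored approximately 11 days later.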

Barnyardgrass [2] = assay: Pre-emergence herbicide test; conditions: Echinochloa crus-galli, read-out: % plant inhibition (Bygr); for inhibition at 11210 g/ha: 11.21 kg/ha; for inhibition at 1120 g/ha: 1.12 kg/ha
Procedure, shortened: as §1

Cocklebur [3] = assay: Pre-emergence herbicide test; conditions: Xanthium strumarium, read-out: % plant inhibition (Cobu); for inhibition at 11210 g/ha: 11.21 kg/ha; for inhibition at 1120 g/ha: 1.12 kg/ha
Procedure, shortened: as §1

Downy Brome [4] = assay: Pre-emergence herbicide test; conditions: Bromus tectorum, read-out: % plant inhibition (Dobr); for inhibition at 11210 g/ha: 11.21 kg/ha; for inhibition at 1120 g/ha: 1.12 kg/ha
Procedure, shortened: as §1

Indian Mustard [5] = assay: Pre-emergence herbicide test; conditions: Brassica juncea, read-out: % plant inhibition (Inmu); for inhibition at 11210 g/ha: 11.21 kg/ha; for inhibition at 1120 g/ha: 1.12 kg/ha
Procedure, shortened: as §1

Morningglory [6] = assay: Pre-emergence herbicide test; conditions: Ipomoea, read-out: % plant inhibition (Mogl); for inhibition at 11210 g/ha: 11.21 kg/ha; for inhibition at 1120 g/ha: 1.12 kg/ha
Procedure, shortened: as §1

Seedling johnsongrass [7] = assay: Pre-emergence herbicide test; conditions: Sorghum halepense, read-out: % plant inhibition (Sejg); for inhibition at 11210 g/ha: 11.21 kg/ha; for inhibition at 1120 g/ha: 1.12 kg/ha
Procedure, shortened: as §1

Velvetleaf [8] = assay: Pre-emergence herbicide test; conditions: Abutilon theophrasti, read-out: % plant inhibition (Vele); for inhibition at 11210 g/ha: 11.21 kg/ha; for inhibition at 1120 g/ha: 1.12 kg/ha
Procedure, shortened: as §1

Wild buckwheat [9] = assay: Pre-emergence herbicide test; conditions: Fallopia convolvulus, read-out: % plant inhibition (Wibw); for inhibition at 11210 g/ha: 11.21 kg/ha; for inhibition at 1120 g/ha: 1.12 kg/ha
Procedure, shortened: as §1

Yellow nutsedge [10] = assay: Pre-emergence herbicide test; conditions: Cyperus, read-out: % plant inhibition (Yens); for inhibition at 11210 g/ha: 11.21 kg/ha; for inhibition at 1120 g/ha: 1.12 kg/ha
Procedure, shortened: as §1

Annual bluegrass [11] = assay: Post-emergence herbicide test; conditions: read-out: % plant inhibition (Anbg); for inhibition at 11210 g/ha: 11.21 kg/ha; for inhibition at 1120 g/ha: 1.12 kg/ha
Procedure, shortened: (§2)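 Emerged annual and perennial plants (2–3 weeks) are sprayed with test compound in a carrier with ~0.4% emulsifier, 1870 L/Ha total volume, atomizer pressure 10 psig. Effects are expressed as % inhibition versus control at approximately 10–14 days and occasionally 24–28 days.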

Barnyardgrass [12] = assay: Post-emergence herbicide test; conditions: Echinochloa crus-galli, read-out: % plant inhibition (Bygr); for inhibition at 11210 g/ha: 11.21 kg/ha; for inhibition at 1120 g/ha: 1.12 kg/ha
Procedure, shortened: as §2

Cocklebur [13] = assay: Post-emergence herbicide test; conditions: Xanthium strumarium, read-out: % plant inhibition (Cobu); for inhibition at 11210 g/ha: 11.21 kg/ha; for inhibition at 1120 g/ha: 1.12 kg/ha
Procedure, shortened: as §2

Downy Brome [14] = assay: Post-emergence herbicide test; conditions: Bromus tectorum, read-out: % plant inhibition (Dobr); for inhibition at 11210 g/ha: 11.21 kg/ha; for inhibition at 1120 g/ha: 1.12 kg/ha
Procedure, shortened: as §2

Indian Mustard [15] = assay: Post-emergence herbicide test; conditions: Brassica juncea, read-out: % plant inhibition (Inmu); for inhibition at 11210 g/ha: 11.21 kg/ha; for inhibition at 1120 g/ha: 1.12 kg/ha
Procedure, shortened: as §2

Morningglory [16] = assay: Post-emergence herbicide test; conditions: Ipomoea, read-out: % plant inhibition (Mogl); for inhibition at 11210 g/ha: 11.21 kg/ha; for inhibition at 1120 g/ha: 1.12 kg/ha
Procedure, shortened: as §2

Seedling johnsongrass [17] = assay: Post-emergence herbicide test; conditions: Sorghum halepense, read-out: % plant inhibition (Sejg); for inhibition at 11210 g/ha: 11.21 kg/ha; for inhibition at 1120 g/ha: 1.12 kg/ha
Procedure, shortened: as §2

Velvetleaf [18] = assay: Post-emergence herbicide test; conditions: Abutilon theophrasti, read-out: % plant inhibition (Vele); for inhibition at 11210 g/ha: 11.21 kg/ha; for inhibition at 1120 g/ha: 1.12 kg/ha
Procedure, shortened: as §2

Wild buckwheat [19] = assay: Post-emergence herbicide test; conditions: Fallopia convolvulus, read-out: % plant inhibition (Wibw); for inhibition at 11210 g/ha: 11.21 kg/ha; for inhibition at 1120 g/ha: 1.12 kg/ha
Procedure, shortened: as §2

Yellow nutsedge [20] = assay: Post-emergence herbicide test; conditions: Cyperus, read-out: % plant inhibition (Yens); for inhibition at 11210 g/ha: 11.21 kg/ha; for inhibition at 1120 g/ha: 1.12 kg/ha
Procedure, shortened: as §2

For `CC(C)OC(=O)COCc1cc(-c2nn(C)c(C(F)(F)F)c2Cl)c(F)cc1Cl` [Compound 119], the inhibition at 11210 g/ha (Annual bluegrass [1]) was 10%, the inhibition at 11210 g/ha (Barnyardgrass [2]) was 100% and the inhibition at 11210 g/ha (Cocklebur [3]) was 100%. It also gave an inhibition at 11210 g/ha (Downy Brome [4]) of 80%, an inhibition at 11210 g/ha (Indian Mustard [5]) of 100% and an inhibition at 11210 g/ha (Morningglory [6]) of 100%. For the same molecule, the inhibition at 11210 g/ha (Seedling johnsongrass [7]) was 80%, the inhibition at 11210 g/ha (Velvetleaf [8]) was 100% and the inhibition at 11210 g/ha (Wild buckwheat [9]) was 100%. It also gave an inhibition at 11210 g/ha (Yellow nutsedge [10]) of 70%, an inhibition at 11210 g/ha (Annual bluegrass [11]) of 100% and an inhibition at 11210 g/ha (Barnyardgrass [12]) of 100%. For the same molecule, the inhibition at 11210 g/ha (Cocklebur [13]) was 100%, the inhibition at 11210 g/ha (Downy Brome [14]) was 100% and the inhibition at 11210 g/ha (Indian Mustard [15]) was 100%. The inhibition at 11210 g/ha (Morningglory [16]) was 100%, the inhibition at 11210 g/ha (Seedling johnsongrass [17]) was 100% and the inhibition at 11210 g/ha (Velvetleaf [18]) was 100%. The inhibition at 11210 g/ha (Wild buckwheat [19]) was 100% and the inhibition at 11210 g/ha (Yellow nutsedge [20]) was 20%.
`C#CCOCc1cc(-c2nn(C)c(C(F)(F)F)c2Cl)c(F)cc1Cl` [Compound 120] gave an inhibition at 1120 g/ha (Annual bluegrass [1]) of 70%, an inhibition at 1120 g/ha (Barnyardgrass [2]) of 80% and an inhibition at 1120 g/ha (Cocklebur [3]) of 30%. The inhibition at 1120 g/ha (Downy Brome [4]) was 70%, the inhibition at 1120 g/ha (Indian Mustard [5]) was 90% and the inhibition at 1120 g/ha (Morningglory [6]) was 80%. It also gave an inhibition at 1120 g/ha (Seedling johnsongrass [7]) of 80%, an inhibition at 1120 g/ha (Velvetleaf [8]) of 100% and an inhibition at 1120 g/ha (Wild buckwheat [9]) of 100%. For the same molecule, the inhibition at 1120 g/ha (Yellow nutsedge [10]) was 10%, the inhibition at 1120 g/ha (Annual bluegrass [11]) was 40% and the inhibition at 1120 g/ha (Barnyardgrass [12]) was 80%. The inhibition at 1120 g/ha (Cocklebur [13]) was 90%, the inhibition at 1120 g/ha (Downy Brome [14]) was 50% and the inhibition at 1120 g/ha (Indian Mustard [15]) was 70%. For the same molecule, the inhibition at 1120 g/ha (Morningglory [16]) was 100%, the inhibition at 1120 g/ha (Seedling johnsongrass [17]) was 80% and the inhibition at 1120 g/ha (Velvetleaf [18]) was 100%. It also gave an inhibition at 1120 g/ha (Wild buckwheat [19]) of 100% and an inhibition at 1120 g/ha (Yellow nutsedge [20]) of 10%.
`CC(=O)OCc1cc(-c2nn(C)c(C(F)(F)F)c2Cl)c(F)cc1Cl` [Compound 121] gave an inhibition at 11210 g/ha (Annual bluegrass [1]) of 100%, an inhibition at 11210 g/ha (Barnyardgrass [2]) of 100% and an inhibition at 11210 g/ha (Cocklebur [3]) of 60%. The inhibition at 11210 g/ha (Downy Brome [4]) was 70%, the inhibition at 11210 g/ha (Indian Mustard [5]) was 100% and the inhibition at 11210 g/ha (Morningglory [6]) was 100%. It also gave an inhibition at 11210 g/ha (Seedling johnsongrass [7]) of 80%, an inhibition at 11210 g/ha (Velvetleaf [8]) of 100% and an inhibition at 11210 g/ha (Wild buckwheat [9]) of 100%. For the same molecule, the inhibition at 11210 g/ha (Yellow nutsedge [10]) was 70%, the inhibition at 11210 g/ha (Annual bluegrass [11]) was 40% and the inhibition at 11210 g/ha (Barnyardgrass [12]) was 100%. The inhibition at 11210 g/ha (Cocklebur [13]) was 90%, the inhibition at 11210 g/ha (Downy Brome [14]) was 90% and the inhibition at 11210 g/ha (Indian Mustard [15]) was 90%. It also gave an inhibition at 11210 g/ha (Morningglory [16]) of 100%, an inhibition at 11210 g/ha (Seedling johnsongrass [17]) of 90% and an inhibition at 11210 g/ha (Velvetleaf [18]) of 100%. The inhibition at 11210 g/ha (Wild buckwheat [19]) was 100% and the inhibition at 11210 g/ha (Yellow nutsedge [20]) was 20%.
With `Cn1nc(-c2cc(CO)c(Cl)cc2F)c(Cl)c1C(F)(F)F` [Compound 122, 2-chloro-5-[4-chloro-1-methyl-5-(trifluoromethyl)-1H-pyrazol-3-yl]-4-fluorobenzenemethanol] the inhibition at 1120 g/ha (Annual bluegrass [1]) was 20%, the inhibition at 1120 g/ha (Barnyardgrass [2]) was 80% and the inhibition at 1120 g/ha (Cocklebur [3]) was 40%. For the same molecule, the inhibition at 1120 g/ha (Downy Brome [4]) was 20%, the inhibition at 1120 g/ha (Indian Mustard [5]) was 100% and the inhibition at 1120 g/ha (Morningglory [6]) was 80%. The inhibition at 1120 g/ha (Seedling johnsongrass [7]) was 40%, the inhibition at 1120 g/ha (Velvetleaf [8]) was 100% and the inhibition at 1120 g/ha (Wild buckwheat [9]) was 70%. The inhibition at 1120 g/ha (Yellow nutsedge [10]) was 0%, the inhibition at 1120 g/ha (Annual bluegrass [11]) was 20% and the inhibition at 1120 g/ha (Barnyardgrass [12]) was 70%. For the same molecule, the inhibition at 1120 g/ha (Cocklebur [13]) was 60%, the inhibition at 1120 g/ha (Downy Brome [14]) was 20% and the inhibition at 1120 g/ha (Indian Mustard [15]) was 50%. It also gave an inhibition at 1120 g/ha (Morningglory [16]) of 80%, an inhibition at 1120 g/ha (Seedling johnsongrass [17]) of 70% and an inhibition at 1120 g/ha (Velvetleaf [18]) of 100%. The inhibition at 1120 g/ha (Wild buckwheat [19]) was 90% and the inhibition at 1120 g/ha (Yellow nutsedge [20]) was 20%.
With `CCOC(=O)CSCc1cc(-c2nn(C)c(C(F)(F)F)c2Cl)c(F)cc1Cl` [Compound 123] the inhibition at 1120 g/ha (Annual bluegrass [1]) was 0%, the inhibition at 1120 g/ha (Barnyardgrass [2]) was 30% and the inhibition at 1120 g/ha (Cocklebur [3]) was 50%. It also gave an inhibition at 1120 g/ha (Downy Brome [4]) of 70%, an inhibition at 1120 g/ha (Indian Mustard [5]) of 80% and an inhibition at 1120 g/ha (Morningglory [6]) of 100%. The inhibition at 1120 g/ha (Seedling johnsongrass [7]) was 40%, the inhibition at 1120 g/ha (Velvetleaf [8]) was 100% and the inhibition at 1120 g/ha (Wild buckwheat [9]) was 90%. It also gave an inhibition at 1120 g/ha (Yellow nutsedge [10]) of 30%, an inhibition at 1120 g/ha (Annual bluegrass [11]) of 0% and an inhibition at 1120 g/ha (Barnyardgrass [12]) of 50%. The inhibition at 1120 g/ha (Cocklebur [13]) was 70%, the inhibition at 1120 g/ha (Downy Brome [14]) was 60% and the inhibition at 1120 g/ha (Indian Mustard [15]) was 30%. For the same molecule, the inhibition at 1120 g/ha (Morningglory [16]) was 100%, the inhibition at 1120 g/ha (Seedling johnsongrass [17]) was 50% and the inhibition at 1120 g/ha (Velvetleaf [18]) was 100%. For the same molecule, the inhibition at 1120 g/ha (Wild buckwheat [19]) was 90% and the inhibition at 1120 g/ha (Yellow nutsedge [20]) was 20%.
